ChEMBL document CHEMBL3580537, “Neristatin 1 provides critical insight into bryostatin 1 structure-function relationships” (J Nat Prod, 2015)
Active and inactive are the calls of the source. No cut-off for these calls is given here.

Columns and labels:
U-937 [1] = experiment: Induction of TNFalpha secretion in human U937 cells at 0.01 nM to 10000 nM by real time qPCR method; type: functional, cell-based
Toledo [2] = experiment: Potency index, ratio of IC50 for Merle-43 to IC50 for test compound against human Toledo cells after 72 hrs by particle counter based cell counting assay; type: functional
U-937 [3] = experiment: Suppression of PMA-induced growth inhibition of human U937 cells at 1000 nM after 72 hrs by particle counter based cell counting assay; type: functional
U-937 [4] = experiment: Growth inhibition of human U937 cells at 0.1 nM to 1000 nM after 72 hrs by particle counter based cell counting assay; type: functional
U-937 [5] = experiment: Inhibition of PMA-induced TNFalpha secretion in human U937 cells at 0.01 nM to 10000 nM by real time qPCR method; type: functional, cell-based
[6] = Growth inhibition of human Toledo cells after 72 hrs by particle counter based cell counting assay; type: functional
U-937 [7] = experiment: Induction of cell attachment of human U937 cells at 0.1 nM to 1000 nM after 60 hrs by particle counter based cell counting assay; type: functional
U-937 [8] = experiment: Inhibition of PMA-induced cell attachment of human U937 cells at 1000 nM after 60 hrs by particle counter based cell counting assay; type: functional
[9] = biological target: Protein kinase C alpha type (Homo sapiens, UniProt P17252); experiment: Inhibition of [20-3H]phorbol 12,13-dibutyrate binding to human PKCalpha by scintillation counting based poly(ethylene) glycol precipitation assay
U-937 [10] = experiment: Induction of cell attachment of human U937 cells at 0.1 nM to 3000 nM after 60 hrs by particle counter based cell counting assay; type: functional
U-937 [11] = experiment: Growth inhibition of human U937 cells at 0.1 nM to 3000 nM after 72 hrs by particle counter based cell counting assay; type: functional
U-937 [12] = experiment: Growth inhibition of human U937 cells at 1000 nM in presence of 10 nM PMA after 72 hrs by particle counter based cell counting assay; type: functional
U-937 [13] = experiment: Induction of TNFalpha secretion in human U937 cells at 0.01 nM to 10000 nM by real time qPCR method relative to PMA; type: functional
Toledo [14] = experiment: Potency index, ratio of IC50 for neristatin-1 to IC50 for test compound against human Toledo cells after 72 hrs by particle counter based cell counting assay; type: functional

| Structure (SMILES) | Activity (U-937 [1]) | Ratio IC50 (Toledo [2]) | inhibition (U-937 [3]) | growth inhibition (GI) (U-937 [4]) | inhibition (U-937 [5]) | IC50 [6] | Activity (U-937 [7]) | inhibition (U-937 [8]) | Ki [9] | Activity (U-937 [10]) | growth inhibition (GI) (U-937 [11]) | growth inhibition (GI) (U-937 [12]) | Activity (U-937 [13]) | Ratio IC50 (Toledo [14]) |
| --- | --- | --- | --- | --- | --- | --- | --- | --- | --- | --- | --- | --- | --- | --- |
| COC(=O)/C=C1/C[C@H]2C[C@]3(O)O[C@H](C[C@@H](O)CC(=O)O[C@H](C)[C@H](O)C[C@@H]4C[C@@H]5CC(=O)O[C@@]5(O4)C(=O)C(C)(C)/C=C/[C@@H](C1)O2)C[C@H](OC(=O)C(C)(C)C)C3(C)C | inactive | 2.5 | Active | inactive | Active | 1.58 nM | inactive | Active | 21.2 nM |  |  |  |  |  |
| CCCCCCCC(=O)O[C@H]1/C(=C/C(=O)OC)C[C@H]2C[C@@H](O)[C@@H](C)OC(=O)C[C@H](O)C[C@@H]3C[C@H](OC(C)=O)C(C)(C)[C@](O)(CCOC(=O)/C=C/C(C)(C)[C@]1(O)O2)O3 |  |  |  |  |  |  |  |  |  | Active | Active | Active | 60% |  |
| CCC/C=C/C=C/C(=O)O[C@H]1/C(=C/C(=O)OC)C[C@H]2C[C@H]([C@@H](C)O)OC(=O)C[C@H](O)C[C@@H]3C[C@H](OC(C)=O)C(C)(C)[C@](O)(C[C@@H]4C/C(=C/C(=O)OC)C[C@H](/C=C/C(C)(C)[C@]1(O)O2)O4)O3 [BRYOSTATIN 1] | inactive |  | Active | inactive | Active |  | inactive | Active | 0.48 nM |  |  |  |  | 17 |
| CCCCCCCCCCCCCC(=O)O[C@@H]1[C@@H](C)[C@@]2(O)[C@@H](C=C(CO)C[C@]3(O)C(=O)C(C)=C[C@@H]23)[C@@H]2C(C)(C)[C@]12OC(C)=O [PHORBOL MYRISTATE ACETATE] | Active |  |  | 50% |  |  | Active |  |  |  |  |  |  |  |
